Experimental data as given in US10407467B2, “Polymyxin derivatives and their use in combination therapy together with different antibiotics” (priority 2013, dated 2019).
In brackets after ≈: the same amount, converted by molar mass. Several values for one entry are separate records, joined by “and”; a condition that tells them apart may be missing. Equal values may be shown once. Where a name gives a salt, the structure may show the parent alone. Read-outs that look alike come from different tables or passages of the source. Bridge positions count the residues as written; N and C are the ends. Square brackets hold non-standard residues; d marks the D form. Peptide text beside a SMILES is read from it. * marks the point of attachment. ξ: configuration not given here. X12 = CC(C)C[C@H](N)[C@H](O)C(=O)*; Thr(3ξ) = CC(O)[C@H](N)C(=O)O; Dab = NCC[C@H](N)C(=O)O; X3 = O=C([C@H]1CCCNC1)*

Experiments:
Pseudomonas aeruginosa [1] = experiment: MIC, compound in combination with a second agent (broth microdilution); type: cell-based; details: 1:1 (wt:wt) combination with Rifampicin; for MIC: Pseudomonas aeruginosa
How it was run: (§1)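 MIC = combined concentration of test compound plus partner agent, mixed at equal mass (1:1 w/w, salt form as used). Up to four strains per species; colonies adjusted to 0.5 McFarland. Run in duplicate; >2-fold disagreement invalidates the run.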

Escherichia coli [2] = experiment: as above; type: cell-based; details: 1:1 (wt:wt) combination with Rifampicin; for MIC: Escherichia coli
How it was run: as §1

Klebsiella pneumoniae [3] = experiment: as above; type: cell-based; details: 1:1 (wt:wt) combination with Rifampicin; for MIC: Klebsiella pneumoniae
How it was run: as §1

Acinetobacter baumannii [4] = experiment: as above; type: cell-based; details: 1:1 (wt:wt) combination with Rifampicin; for MIC: Acinetobacter baumannii
How it was run: as §1

HK-2 cell line = experiment: In vitro renal cell toxicity assay (resazurin reduction); type: cell-based, human
P. aeruginosa ATCC27853 = type: in vivo, Pseudomonas aeruginosa; details: ATCC27853, in vivo, iv, 5 mg/kg, 6 h
Procedure: Compounds were administered in solution by intravenous (IV) bolus injection into the lateral tail vein. […] At 1 hour post infection, 4 animals were humanely euthanized using pentabarbitone overdose to provide a pre-treatment control group. At 9 hours post infection, the clinical condition of all animals was assessed prior to them being humanely euthanized by pentabarbitone overdose. Animal weight was determined before both thighs were removed and weighed individually. Individual thigh tissue samples were homogenized in ice cold sterile phosphate buffered saline. Thigh homogenates were then quantitatively cultured onto CLED agar and incubated at 37° C. for 24 hours before colonies were counted.

Pseudomonas aeruginosa [5] = experiment: MIC, sole activity (no second agent); type: cell-based; details: Table 6A; no second agent; different supplier of Cation-adjusted MHB
How it was run: (§2)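 First, isolated colonies grown 18-24 hours on Mueller-Hinton agar were suspended to 0.5 McFarland; next, up to four strains per pathogen were tested in duplicate in cation-adjusted MHB; finally, the lower concordant value or modal repeat value was reported against Polymyxin B.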

Escherichia coli [6] = experiment: MIC, sole activity (no second agent); type: cell-based; details: Table 6A; no second agent; different supplier of Cation-adjusted MHB
How it was run: as §2

Klebsiella pneumoniae [7] = experiment: MIC, sole activity (no second agent); type: cell-based; details: Table 6A; no second agent; different supplier of Cation-adjusted MHB
How it was run: as §2

Acinetobacter baumannii [8] = experiment: MIC, sole activity (no second agent); type: cell-based; details: Table 6A; no second agent; different supplier of Cation-adjusted MHB
How it was run: as §2

P. aeruginosa = experiment: MIC against panel of strains enriched for resistance to colistin or polymyxin B (CLSI), alone or 1:1 with rifampicin; type: cell-based, Pseudomonas aeruginosa; details: one value per strain of the panel
Procedure: (§3) […] For example, a well at 2 μg/mL consisted of 1 μg/mL test compound and 1 μg/mL rifampicin.
(§4) • where n indicates the number of strains within the panel for a particular organism.

K. pneumoniae = experiment: as above; type: cell-based, Klebsiella pneumoniae; details: one value per strain of the panel
Procedure: as §3, §4

[9] = MIC = total drug concentration, strain ATCC 27853
[10] = MIC = total drug concentration, strain ATCC CRM-9027
[11] = MIC = total drug concentration, strain ATCC-47
[12] = MIC = total drug concentration, strain CCUG 59626
[13] = MIC is total drug concentration
[14] = MIC = total drug concentration, strain ATCC25922
[15] = MIC = total drug concentration, strain NCTC9001
[16] = MIC = total drug concentration, strain CCUG-59348
[17] = MIC = total drug concentration, strain ATCC BAA-747
[18] = MIC = total drug concentration, strain CCUG57249
[19] = MIC = total drug concentration, strain NCTC 13423
[20] = MIC = total drug concentration, strain NCTC 13424

## CC(C)C[C@@H]1NC(=O)[C@@H](Cc2ccccc2)NC(=O)[C@H](CCN)NC(=O)[C@@H](NC(=O)[C@H](CCN)NC(=O)[C@@H](NC(=O)[C@H]2CCCNC2)[C@@H](C)O)CCNC(=O)[C@H]([C@@H](C)O)NC(=O)[C@H](CCN)NC(=O)[C@H](CCN)NC1=O [Example 37, (S)-Piperidine-3-carbonyl polymyxin B nonapeptide, trifluoroacetate salt] (X3-T[Dab][Dab][Dab][dF]L[Dab][Dab]T; lactam 3-C)
Pseudomonas aeruginosa [1]; [9]
  MIC P. aeruginosa ATCC 27853: ≤0.06 micrograms/mL
Pseudomonas aeruginosa [1]; [10]
  MIC P. aeruginosa ATCC CRM-9027: 0.125 micrograms/mL
Pseudomonas aeruginosa [1]; [11]
  MIC P. aeruginosa ATCC-47: ≤0.06 micrograms/mL
Pseudomonas aeruginosa [1]; [12]
  MIC P. aeruginosa CCUG 59626: ≤0.06 micrograms/mL
Pseudomonas aeruginosa [1]; [13]
  MIC P. aeruginosa ATCC 27853: ≤0.06 micrograms/mL
  MIC P. aeruginosa ATCC CRM-9027: 0.125 micrograms/mL
  MIC P. aeruginosa ATCC-47: ≤0.06 micrograms/mL
  MIC P. aeruginosa CCUG 59626: ≤0.06 micrograms/mL
Escherichia coli [2]; [14]
  MIC E. coli ATCC25922: 0.125 micrograms/mL
Escherichia coli [2]; [15]
  MIC E. coli NCTC9001: ≤0.06 micrograms/mL
Escherichia coli [2]; [13]
  MIC E. coli ATCC25922: 0.125 micrograms/mL
  MIC E. coli NCTC9001: ≤0.06 micrograms/mL
Klebsiella pneumoniae [3]; MIC = total drug concentration, strain ATCC-BAA-2146
  MIC K. pneumoniae ATCC-BAA-2146: 0.125 micrograms/mL
Klebsiella pneumoniae [3]; [16]
  MIC K. pneumoniae CCUG-59348: 2 micrograms/mL
Klebsiella pneumoniae [3]; MIC = total drug concentration, strain NCTC 13438
  MIC K. pneumoniae NCTC 13438: 0.125 micrograms/mL
Klebsiella pneumoniae [3]; [13]
  MIC K. pneumoniae ATCC-BAA-2146: 0.125 micrograms/mL
  MIC K. pneumoniae CCUG-59348: 2 micrograms/mL
  MIC K. pneumoniae NCTC 13438: 0.125 micrograms/mL
Acinetobacter baumannii [4]; [17]
  MIC A. baumannii ATCC BAA-747: ≤0.06 micrograms/mL
Acinetobacter baumannii [4]; [18]
  MIC A. baumannii CCUG57249: ≤0.06 micrograms/mL
Acinetobacter baumannii [4]; [19]
  MIC A. baumannii NCTC 13423: ≤0.06 micrograms/mL
Acinetobacter baumannii [4]; [20]
  MIC A. baumannii NCTC 13424: ≤0.06 micrograms/mL
Acinetobacter baumannii [4]; [13]
  MIC A. baumannii ATCC BAA-747: ≤0.06 micrograms/mL
  MIC A. baumannii CCUG57249: ≤0.06 micrograms/mL
  MIC A. baumannii NCTC 13423: ≤0.06 micrograms/mL
  MIC A. baumannii NCTC 13424: ≤0.06 micrograms/mL
HK-2 cell line
  HK-2 IC50 rel to PMB: 21
P. aeruginosa ATCC27853
  log reduction in bacterial counts compared to non-treated control: 1.75 log
Pseudomonas aeruginosa [5]
  MIC P. aeruginosa ATCC 27853: 0.5 micrograms/mL
  MIC P. aeruginosa CCUG 59347: 2 micrograms/mL
Escherichia coli [6]
  MIC E. coli ATCC25922: 0.5 micrograms/mL
  MIC E. coli NCTC 13441: 0.5 micrograms/mL
Klebsiella pneumoniae [7]
  MIC K. pneumoniae ATCC 4352: 0.25 micrograms/mL
  MIC K. pneumoniae ATCC BAA-2146: 0.25 micrograms/mL
Acinetobacter baumannii [8]
  MIC A. baumannii ATCC BAA-747: 2 micrograms/mL
  MIC A. baumannii NCTC 13424: 1 micrograms/mL

## CC(C)C[C@@H]1NC(=O)[C@@H](Cc2ccccc2)NC(=O)[C@H](CCN)NC(=O)[C@@H](NC(=O)[C@H](CCN)NC(=O)[C@@H](NC(=O)[C@@H](O)[C@@H](N)CC(C)C)C(C)O)CCNC(=O)[C@H](C(C)O)NC(=O)[C@H](CCN)NC(=O)[C@H](CCN)NC1=O (stereo partly drawn) [Example 41, (2S,3S)-3-Amino-2-hydroxy-5-methylhexanoyl polymyxin B nonapeptide, trifluoroacetate salt] (X12-[Thr(3ξ)][Dab][Dab][Dab][dF]L[Dab][Dab][Thr(3ξ)]; lactam 3-C)
Pseudomonas aeruginosa [1]; [9]
  MIC P. aeruginosa ATCC 27853: 0.125 micrograms/mL
Pseudomonas aeruginosa [1]; [10]
  MIC P. aeruginosa ATCC CRM-9027: 0.25 micrograms/mL
Pseudomonas aeruginosa [1]; [11]
  MIC P. aeruginosa ATCC-47: ≤0.06 micrograms/mL
Pseudomonas aeruginosa [1]; [12]
  MIC P. aeruginosa CCUG 59626: 0.125 micrograms/mL
Escherichia coli [2]; [14]
  MIC E. coli ATCC25922: ≤0.06 micrograms/mL
Escherichia coli [2]; [15]
  MIC E. coli NCTC9001: 0.125 micrograms/mL
Klebsiella pneumoniae [3]; [16]
  MIC K. pneumoniae CCUG-59348: 2 micrograms/mL
Acinetobacter baumannii [4]; [17]
  MIC A. baumannii ATCC BAA-747: ≤0.06 micrograms/mL
Acinetobacter baumannii [4]; [18]
  MIC A. baumannii CCUG57249: ≤0.06 micrograms/mL
Acinetobacter baumannii [4]; [19]
  MIC A. baumannii NCTC 13423: ≤0.06 micrograms/mL
Acinetobacter baumannii [4]; [20]
  MIC A. baumannii NCTC 13424: ≤0.06 micrograms/mL
P. aeruginosa ATCC27853
  log reduction in bacterial counts compared to non-treated control: 2.73 log

## CO[C@H]1/C=C/O[C@@]2(C)Oc3c(C)c(O)c4c(O)c(c(/C=N/N5CCN(C)CC5)c(O)c4c3C2=O)NC(=O)/C(C)=C\C=C\[C@H](C)[C@H](O)[C@@H](C)[C@@H](O)[C@@H](C)[C@H](OC(C)=O)[C@@H]1C [Rifampicin, reference compound]
P. aeruginosa; Pseudomonas aeruginosa, read-out: MIC Pseudomonas aeruginosa (n = 6), agent alone
  MIC: 32 µg/mL (≈ 38.9 µM)
P. aeruginosa; agent alone
  MIC Pseudomonas aeruginosa (n = 6): 16 micrograms/mL and 32, 32, 32 micrograms/mL
K. pneumoniae; Klebsiella pneumoniae, read-out: MIC Klebsiella pneumoniae (n = 11), agent alone
  MIC: 16 µg/mL (≈ 19.4 µM)
K. pneumoniae; agent alone
  MIC Klebsiella pneumoniae (n = 11): 32 micrograms/mL and > 32 micrograms/mL and >32, 32, 32, micrograms/mL and 32, 32, >32, micrograms/mL and >32, >32 micrograms/mL
Pseudomonas aeruginosa [1]; ATCC47, MIC = total drug concentration, strain ATCC-47, read-out: MIC P. aeruginosa ATCC-47
  MIC: 16 µg/mL
Pseudomonas aeruginosa [1]; ATCC27853, MIC = total drug concentration, strain ATCC 27853, read-out: MIC P. aeruginosa ATCC 27853
  MIC: 16 µg/mL
Pseudomonas aeruginosa [1]; CCUG59626, MIC = total drug concentration, strain CCUG 59626, read-out: MIC P. aeruginosa CCUG 59626
  MIC: 16 µg/mL
Pseudomonas aeruginosa [1]; MIC = total drug concentration, strain ATCC CRM-9027, read-out: MIC P. aeruginosa ATCC CRM-9027
  MIC: 16 µg/mL
Escherichia coli [2]; MIC = total drug concentration, strain ATCC25922, read-out: MIC E. coli ATCC25922
  MIC: 4 µg/mL
Escherichia coli [2]; MIC = total drug concentration, strain NCTC9001, read-out: MIC E. coli NCTC9001
  MIC: 4 µg/mL
Klebsiella pneumoniae [3]; ATCC4352, MIC = total drug concentration, strain ATCC 4352, read-out: MIC K. pneumoniae ATCC 4352
  MIC: 8 µg/mL
Klebsiella pneumoniae [3]; ATCCBAA2146, MIC = total drug concentration, strain ATCC-BAA-2146, read-out: MIC K. pneumoniae ATCC-BAA-2146
  MIC: 16 µg/mL
Klebsiella pneumoniae [3]; CCUG59348, MIC = total drug concentration, strain CCUG-59348, read-out: MIC K. pneumoniae CCUG-59348
  MIC: 32 µg/mL
Klebsiella pneumoniae [3]; NCTC13438, MIC = total drug concentration, strain NCTC 13438, read-out: MIC K. pneumoniae NCTC 13438
  MIC: 16 µg/mL
Acinetobacter baumannii [4]; ATCCBAA747, MIC = total drug concentration, strain ATCC BAA-747, read-out: MIC A. baumannii ATCC BAA-747
  MIC: 2 µg/mL
Acinetobacter baumannii [4]; NCTC13423, MIC = total drug concentration, strain NCTC 13423, read-out: MIC A. baumannii NCTC 13423
  MIC: 1 µg/mL
Acinetobacter baumannii [4]; NCTC13424, MIC = total drug concentration, strain NCTC 13424, read-out: MIC A. baumannii NCTC 13424
  MIC: 1 µg/mL
Acinetobacter baumannii [4]; MIC = total drug concentration, strain CCUG57249, read-out: MIC A. baumannii CCUG57249
  MIC: 2 µg/mL
